Assay results: PubChem BioAssay AID248 (DTP/NCI, 2004)
Where “and” joins values, the source holds several entries; their conditions need not be identical. Equal values may be shown once. Inconclusive results and toxic doses are left out. Cut-off read from the data, not from the text of the source: active = T/C of 150% or more; inactive = T/C below 125%.

Test system: L1210 leukemia ip in BDF1 mice, survival T/C
Experiment: NCI In Vivo Anticancer Drug Screen. Data for tumor model L1210 Leukemia (intraperitoneal) in B6D2F1 (BDF1) mice
Conditions: endpoint: mean survival time, higher = longer survival
Summary of the method: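 Mice bearing the transplanted tumor received compound or vehicle. Survival of the treated group was divided by that of the vehicle-treated control group to give the ratio.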

[1] = dose: 100.0 mg/kg/injection, schedule: Q04DX002 (ip), vehicle: saline
[2] = dose: 200.0 mg/kg/injection, schedule: Q04DX002 (ip), vehicle: saline
[3] = dose: 400.0 mg/kg/injection, schedule: Q04DX002 (ip), vehicle: saline
[4] = dose: 50.0 mg/kg/injection, schedule: Q01DX001 (ip), vehicle: Klucel (hydroxypropylcellulose) (HPC)
[5] = dose: 100.0 mg/kg/injection, schedule: Q01DX001 (ip), vehicle: Klucel (hydroxypropylcellulose) (HPC)
[6] = dose: 200.0 mg/kg/injection, schedule: Q01DX001 (ip), vehicle: Klucel (hydroxypropylcellulose) (HPC)
[7] = dose: 50.0 mg/kg/injection, schedule: Q01DX009 (ip), vehicle: Klucel (hydroxypropylcellulose) (HPC)
[8] = dose: 100.0 mg/kg/injection, schedule: Q01DX009 (ip), vehicle: Klucel (hydroxypropylcellulose) (HPC)
[9] = dose: 100.0 mg/kg/injection, schedule: Q04DX003 (ip), vehicle: Klucel (hydroxypropylcellulose) (HPC)
[10] = dose: 200.0 mg/kg/injection, schedule: Q01DX009 (ip), vehicle: Klucel (hydroxypropylcellulose) (HPC)
[11] = dose: 200.0 mg/kg/injection, schedule: Q04DX003 (ip), vehicle: Klucel (hydroxypropylcellulose) (HPC)
[12] = dose: 100.0 mg/kg/injection, schedule: Q01DX001 (ip), vehicle: saline
[13] = dose: 200.0 mg/kg/injection, schedule: Q01DX001 (ip), vehicle: saline
[14] = dose: 400.0 mg/kg/injection, schedule: Q01DX001 (ip), vehicle: Klucel (hydroxypropylcellulose) (HPC)
[15] = dose: 400.0 mg/kg/injection, schedule: Q01DX009 (ip), vehicle: Klucel (hydroxypropylcellulose) (HPC)
[16] = dose: 400.0 mg/kg/injection, schedule: Q04DX003 (ip), vehicle: Klucel (hydroxypropylcellulose) (HPC)
[17] = dose: 400.0 mg/kg/injection, schedule: Q01DX001 (ip), vehicle: saline

Measured: T/C

NC(=O)C1CCC(=O)N1 (centres undefined)
inactive: dose: 100.0 mg/kg/injection, schedule: Q01DX009 (ip), vehicle: saline 93 % of control | [1] 104 % of control | dose: 200.0 mg/kg/injection, schedule: Q01DX009 (ip), vehicle: saline 101 % of control | [2] 98 % of control | dose: 400.0 mg/kg/injection, schedule: Q01DX009 (ip), vehicle: saline 93 % of control | [3] 91 % of control

CC[C@@]1(O)C[C@H](OC2CC(N(C)C)C(O)C(C)O2)c2c(O)c3c(c(O)c2[C@H]1OC1CC(N(C)C)C(O)C(C)O1)C(=O)c1cccc(O)c1C3=O (some centres undefined)
inactive: dose: 0.5 mg/kg/injection, schedule: Q01DX009 (ip), vehicle: saline 110 % of control

COc1ccc(N=Nc2ccccn2)cc1
inactive: [4] 103 % of control | [5] 105 % of control | [6] 103 % of control

CC1CCCCC1C(=O)N1CCCCC1 (centres undefined)
inactive: [1] 117 % of control | [2] 96 % of control | [3] 101 % of control

CC(=O)c1ccc(F)cc1
inactive: [7] 98 % of control | [8] 98 % of control | [9] 86 % of control | [10] 97 % of control | [11] 98 % of control

COCC/C(COC)=N/N
inactive: dose: 50.0 mg/kg/injection, schedule: Q01DX001 (ip), vehicle: saline 103 % of control | [12] 103 % of control | [13] 122 % of control

O=C(Nc1ccc(F)cc1)Nc1nccs1
inactive: [5] 88 % of control | [8] 98 % of control and 102 % of control | [9] 102 % of control | [6] 96 % of control | [10] 101 % of control and 117 % of control | [11] 111 % of control | [14] 93 % of control | [15] 98 % of control | [16] 113 % of control

CN(C)c1ccc(/C=N\NC(=O)CCCCC(=O)N/N=C\c2ccc(N(C)C)cc2)cc1
inactive: [9] 94 % of control | [11] 91 % of control | [16] 91 % of control

Cc1ccc(S(=O)(=O)O)cn1
inactive: [12] 94 % of control | [13] 97 % of control | [17] 92 % of control

CC(C#N)NC(=O)NC(C)C(N)=O (centres undefined)
inactive: [12] 107 % of control | [13] 107 % of control | [17] 97 % of control

CN(C)c1ccc(/C=N\NC(=S)Nc2ccc3cn[nH]c3c2)cc1
inactive: dose: 50.0 mg/kg/injection, schedule: Q01DX001 (ip), vehicle: carboxymethylcellulose (CMC) 102 % of control | dose: 100.0 mg/kg/injection, schedule: Q01DX001 (ip), vehicle: carboxymethylcellulose (CMC) 102 % of control | dose: 200.0 mg/kg/injection, schedule: Q01DX001 (ip), vehicle: carboxymethylcellulose (CMC) 111 % of control

Cc1ncc2c(n1)NC(c1ccc(Cl)cc1)=NC2
inactive: dose: 75.0 mg/kg/injection, schedule: Q01DX001 (ip), vehicle: other 91 % of control | dose: 150.0 mg/kg/injection, schedule: Q01DX001 (ip), vehicle: other 100 % of control | dose: 300.0 mg/kg/injection, schedule: Q01DX001 (ip), vehicle: other 96 % of control

Clc1ccc(Cl)c(-c2csc(-c3ccncc3)n2)c1
inactive: dose: 25.0 mg/kg/injection, schedule: Q01DX009 (ip), vehicle: Klucel (hydroxypropylcellulose) (HPC) 116 % of control | [7] 100 % of control | [8] 97 % of control and 103 % of control

CCCCCCCCCCCCCCCCNC(=O)c1cc([N+](=O)[O-])ccc1C(=O)O
inactive: [9] 95 % of control | [11] 95 % of control | [16] 97 % of control

O=c1n(-c2ccccc2)c(=O)n(-c2ccccc2)c(=O)n1-c1ccccc1
inactive: [12] 107 % of control | [9] 89 % of control | [13] 102 % of control | [11] 94 % of control | [17] 115 % of control | [16] 104 % of control

CCN(CC)CCNC(=O)c1cc(N2CCOCC2)ccn1
inactive: [12] 108 % of control | [13] 102 % of control

O=C(O)CC1OCC=C2CN3CCC45C6=CC(=O)C(=O)C([N+](=O)[O-])=C6NC4C1C2CC35 (centres undefined)
inactive: dose: 25.0 mg/kg/injection, schedule: Q01DX001 (ip), vehicle: carboxymethylcellulose (CMC) 98 % of control

COc1ccc2nccc(C(=O)CCC3CCN(C(=O)c4ccc([N+](=O)[O-])cc4)CC3C(CBr)CCBr)c2c1 (centres undefined)
inactive: dose: 100.0 mg/kg/injection, schedule: Q01DX001 (ip), vehicle: other 104 % of control | dose: 200.0 mg/kg/injection, schedule: Q01DX001 (ip), vehicle: other 88 % of control | dose: 400.0 mg/kg/injection, schedule: Q01DX001 (ip), vehicle: other 111 % of control

C=CCN(CC=C)/N=N/c1nc[nH]c1C(N)=O
inactive: dose: 37.5 mg/kg/injection, schedule: Q01DX009 (ip), vehicle: saline with Tween-80 104 % of control | dose: 75.0 mg/kg/injection, schedule: Q01DX009 (ip), vehicle: saline with Tween-80 100 % of control | dose: 150.0 mg/kg/injection, schedule: Q01DX009 (ip), vehicle: saline with Tween-80 98 % of control

O=C(NC(=O)C(Cl)Cl)OC1c2ccccc2-c2ccccc21
inactive: [4] 95 % of control | [5] 100 % of control | [8] 90 % of control | [9] 96 % of control | [6] 94 % of control | [10] 93 % of control | [11] 96 % of control | [14] 92 % of control | [16] 95 % of control

O=C1NC(c2cccc3ccccc23)Nc2cc(Cl)ccc21 (centres undefined)
inactive: [7] 109 % of control | [8] 112 % of control | dose: 150.0 mg/kg/injection, schedule: Q01DX009 (ip), vehicle: Klucel (hydroxypropylcellulose) (HPC) 118 % of control

O=C(Nc1nccs1)NC1CCCCC1
inactive: dose: 100.0 mg/kg/injection, schedule: Q01DX009 (ip), vehicle: other 100 % of control | dose: 200.0 mg/kg/injection, schedule: Q01DX009 (ip), vehicle: other 96 % of control | dose: 400.0 mg/kg/injection, schedule: Q01DX009 (ip), vehicle: other 93 % of control

Oc1c(Br)cc(Br)cc1/C=N/N1CCN(/N=C/c2cc(Br)cc(Br)c2O)CC1
inactive: [12] 87 % of control | [17] 90 % of control

CC(C(=O)O)N1C(=O)c2ccccc2C1=O (centres undefined)
inactive: [8] 93 % of control | [9] 92 % of control | [10] 95 % of control | [11] 97 % of control | [15] 90 % of control | [16] 94 % of control

O=C(N/N=C/c1ccc(-c2ccccc2)cc1)Nc1ccccc1
inactive: dose: 100.0 mg/kg/injection, schedule: Q01DX009 (ip), vehicle: saline with Tween-80 92 % of control | dose: 100.0 mg/kg/injection, schedule: Q04DX003 (ip), vehicle: saline with Tween-80 92 % of control | dose: 200.0 mg/kg/injection, schedule: Q01DX009 (ip), vehicle: saline with Tween-80 96 % of control | dose: 200.0 mg/kg/injection, schedule: Q04DX003 (ip), vehicle: saline with Tween-80 100 % of control | dose: 400.0 mg/kg/injection, schedule: Q04DX003 (ip), vehicle: saline with Tween-80 93 % of control
